The source of these data is patent publication EP4644375A1, “SUBSTITUTED HYDROQUINOLINES FOR THE TREATMENT OF GLIOBLASTOMA MULTIFORME” (Molius Saglik Teknolojileri Anonim Sirketi, priority 2024, dated 2025).

The test system of assay [1] is U138-MG human glioma cell. Briefly: Cell proliferation analysis (MTT). In kind it is cell-based. The conditions noted are these: 10 µM, two days, MTT; for activity at 10 µM / inhibition at 10 µM: Homo sapiens, 48 h.
The next assay concerns U87-MG human glioma cell. Briefly: Cell proliferation analysis (MTT). The conditions noted are these: for activity at 10 µM / inhibition at 10 µM: Homo sapiens, U-87 MG, 48 h; for top 5 target compounds whose treatment resulted in the lowest proliferation: ranking. The format is cell-based.

Consider `O=C1CCc2cc(OCc3cn(-c4cccc5[nH]ncc45)nn3)ccc2N1` [TR-G078, 6-((1-(1H-indazol-4-yl)-1H-1,2,3-triazol-4-yl)methoxy)-3,4-dihydroquinolin-2(1H)-one], for which, in assay [1], the activity at 10 µM stood at 57% and the inhibition (commonly the change of the read-out against control, counted positive when it falls) at 10 µM turned out to be 43%. Further, in the assay with U87-MG human glioma cell (10 µM, two days, MTT), the activity at 10 µM turned out to be 44% and the inhibition at 10 µM worked out at 56%. In addition, the “top 5 target compounds whose treatment resulted in the lowest proliferation” value in the assay with U87-MG human glioma cell is recorded as “top 5”.

In the case of `CCOC(=O)CCn1cc(COc2ccc3c(c2)CCC(=O)N3)nn1` [TR-G079, ethyl 3-(4-(((2-oxo-1,2,3,4-tetrahydroquinolin-6-yl)oxy)methyl)-1H-1,2,3-triazol-1-yl)propanoate], in assay [1], the activity at 10 µM turned out to be 112% and the inhibition at 10 µM was -12%. Moreover, in the assay with U87-MG human glioma cell (10 µM, two days, MTT), the activity at 10 µM worked out at 94% and the inhibition at 10 µM was found to be 6%.

Take `O=C1CCc2cc(OCc3cn(CCOCc4ccccc4)nn3)ccc2N1` [TR-G080, 6-((1-(2-(benzyloxy)ethyl)-1H-1,2,3-triazol-4-yl)methoxy)-3,4-dihydroquinolin-2(1H)-one]: in assay [1], the activity at 10 µM came out at 71% and the inhibition at 10 µM stood at 29%. Further, in the assay on U87-MG human glioma cell (10 µM, two days, MTT), the activity at 10 µM worked out at 79% and the inhibition at 10 µM is 21%.

As to `O=C1CCc2cc(OC(=O)c3cccc([N+](=O)[O-])c3)ccc2N1` [TR-G081, 2-oxo-1,2,3,4-tetrahydroquinolin-6-yl 3-nitrobenzoate], the activity at 10 µM in assay [1] worked out at 108%; in the assay with U87-MG human glioma cell (10 µM, two days, MTT) it was 65%. Besides, the inhibition at 10 µM is -8% in assay [1] and 35% with U87-MG human glioma cell (10 µM, two days, MTT).

In the case of `CCCn1cc(COc2ccc3c(c2)CCC(=O)N3)nn1` [TR-G082, 6-((1-propyl-1H-1,2,3-triazol-4-yl)methoxy)-3,4-dihydroquinolin-2(1H)-one], in assay [1], the activity at 10 µM amounted to 89% and the inhibition at 10 µM came out at 11%. Moreover, in the assay with U87-MG human glioma cell (10 µM, two days, MTT), the activity at 10 µM amounted to 74% and the inhibition at 10 µM is 26%.

Take `O=C1CCc2cc(OCc3cc(-c4ccc(Cl)cc4)no3)ccc2N1` [TR-G084, 6-((3-(4-chlorophenyl)isoxazol-5-yl)methxy)-3,4-dihydroquinolin-2(1H)-one]: the “Cell Proliferation (%)” value is 71% in assay [1] and 65% in the assay on U87-MG human glioma cell (10 µM, two days, MTT). For the same molecule, the inhibition at 10 µM was 30% in assay [1] and 35% in the assay with U87-MG human glioma cell (10 µM, two days, MTT).

For the molecule `COc1ccc(S(=O)(=O)Oc2ccc3c(c2)CCC(=O)N3)cc1OC` [TR-G085, 2-oxo-1,2,3,4-tetrahydroquinolin-6-yl 3,4-dimethoxybenzenesulfonate], in assay [1], the activity at 10 µM is 71% and the inhibition at 10 µM is 29%. Also, in the assay with U87-MG human glioma cell (10 µM, two days, MTT), the activity at 10 µM stood at 53% and the inhibition at 10 µM is 47%.

As for `O=C1CCc2cc(OCc3cn(Cc4ccc(F)cc4)nn3)ccc2N1` [TR-G086, 6-((1-(4-fluorobenzyl)-1H-1,2,3-triazol-4-yl)methoxy)-3,4-dihydroquinolin-2(1H)-one], in assay [1], the activity at 10 µM was 79% and the inhibition at 10 µM came out at 21%. In the assay on U87-MG human glioma cell (10 µM, two days, MTT), the activity at 10 µM is 79% and the inhibition at 10 µM worked out at 21%.

`O=C1CCc2cc(OCC(=O)N3CCN(c4ccc(C(F)(F)F)cc4)CC3)ccc2N1` [TR-G087, 6-(2-oxo-2-(4-(4-(trifluoromethyl)phenyl)piperazin-1-yl)ethoxy)-3,4-dihydroquinolin-2(1H)-one]: in assay [1], the activity at 10 µM was 55% and the inhibition at 10 µM came to 45%. Further, in the assay on U87-MG human glioma cell (10 µM, two days, MTT), the activity at 10 µM was 58% and the inhibition at 10 µM turned out to be 42%.

Regarding `O=C(COc1ccc2c(c1)CCC(=O)N2)Nc1ccc2ncccc2c1` [TR-G089, 2-((2-oxo-1,23,4-tetrahydroquinolin-6-yl)oxy)-N-(quinolin-6-yl)acetamide], the activity at 10 µM in assay [1] worked out at 67%; in the assay with U87-MG human glioma cell (10 µM, two days, MTT), 67%. Also, the inhibition at 10 µM came out at 33% in assay [1] and 33% in the assay on U87-MG human glioma cell (10 µM, two days, MTT).

`CC(=O)c1ccc(-n2cc(COc3ccc4c(c3)CCC(=O)N4)nn2)cc1` [TR-G093, 6-((1-(4-acetylphenyl)-1H-1,2,3-triazol-4-yl)methoxy)-3,4-dihydroquinolin-2(1H)-one]: in assay [1], the activity at 10 µM was 63% and the inhibition at 10 µM worked out at 38%. In addition, in the assay on U87-MG human glioma cell (10 µM, two days, MTT), the activity at 10 µM came to 55% and the inhibition at 10 µM was 45%.

For the molecule `COc1cc(NC(=O)COc2ccc3c(c2)CCC(=O)N3)cc(OC)c1OC` [TR-G094, 2-((2-oxo-1,2,3,4-tetrahydroquinolin-6-yl)oxy)-N-(3,4,5-trimethoxyphenyl)acetamide], in assay [1], the activity at 10 µM worked out at 80% and the inhibition at 10 µM came to 20%. In the assay on U87-MG human glioma cell (10 µM, two days, MTT), the activity at 10 µM stood at 78% and the inhibition at 10 µM was determined as 22%.

For `O=C1CCc2cc(OC(=O)Nc3ccccc3Cl)ccc2N1` [TR-G096, 2-oxo-1,2,3,4-tetrahydroquinolin-6-yl (2-chlorophenyl)carbamate], the activity at 10 µM in assay [1] was 70%; with U87-MG human glioma cell (10 µM, two days, MTT), 75%. Besides, the inhibition at 10 µM came out at 30% in assay [1] and 25% with U87-MG human glioma cell (10 µM, two days, MTT).

Consider `CC(C)CCN1C(=O)CCc2cc(OCCCCc3nnnn3C3CCCCC3)ccc21` [TR-G101, 6-(4-(1-cyclohexyl-1H-tetrazol-5-yl)butoxy)-1-isopentyl-3,4-dihydroquinolin-2(1H)-one], for which, in assay [1], the activity at 10 µM is 76% and the inhibition at 10 µM was found to be 24%. In the assay on U87-MG human glioma cell (10 µM, two days, MTT), the activity at 10 µM is 76% and the inhibition at 10 µM was 24%.

On to `CCOC(=O)CN1C(=O)CCc2cc(OCCCCc3nnnn3C3CCCCC3)ccc21` [TR-G102, ethyl 2-(6-(4-(1-cyclohexyl-1H-tetrazol-5-yl)butoxy)-2-oxo-3,4-dihydroquinolin-1(2H)-yl)acetate], for which the activity at 10 µM is 49% in assay [1] and 66% in the assay on U87-MG human glioma cell (10 µM, two days, MTT). Further, the inhibition at 10 µM was determined as 51% in assay [1] and 35% in the assay on U87-MG human glioma cell (10 µM, two days, MTT).

As for `C=CCN1C(=O)CCc2cc(OCCCCc3nnnn3C3CCCCC3)ccc21` [TR-G103, 1-allyl-6-(4-(1-cyclohexyl-1H-tetrazol-5-yl)butoxy)-3,4-dihydroquinolin-2(1H)-one], the activity at 10 µM in assay [1] turned out to be 63%; with U87-MG human glioma cell (10 µM, two days, MTT), 45%. The inhibition at 10 µM amounted to 38% in assay [1] and 55% in the assay with U87-MG human glioma cell (10 µM, two days, MTT). Moreover, in the assay with U87-MG human glioma cell, the “top 5 target compounds whose treatment resulted in the lowest proliferation” value was “top 5”.

Take `Cc1ccc(CN2C(=O)CCc3cc(OCCCCc4nnnn4C4CCCCC4)ccc32)cc1` [TR-G104, 6-(4-(1-cyclohexyl-1H-tetrazol-5-yl)butoxy)-1-(4-methylbenzyl)-3,4-dihydroquinolin-2(1H)-one]: in assay [1], the activity at 10 µM was 83% and the inhibition at 10 µM turned out to be 17%. Besides, in the assay on U87-MG human glioma cell (10 µM, two days, MTT), the activity at 10 µM turned out to be 49% and the inhibition at 10 µM was 51%.

With `CCCN1C(=O)CCc2cc(OCCCCc3nnnn3C3CCCCC3)ccc21` [TR-G105, 6-(4-(1-cyclohexyl-1H-tetrazol-5-yl)butoxy)-1-propyl-3,4-dihydroquinolin-2(1H)-one], the activity at 10 µM in assay [1] came to 73%; in the assay on U87-MG human glioma cell (10 µM, two days, MTT) it was 48%. The inhibition at 10 µM in assay [1] was determined as 28%; with U87-MG human glioma cell (10 µM, two days, MTT), 52%.

Turning to `O=C1CCc2cc(OCCCCc3nnnn3C3CCCCC3)ccc2N1CCCc1ccccc1` [TR-G106, 6-(4-(1-cyclohexyl-1H-tetrazol-5-yl)butoxy)-1-(3-phenylpropyl)-3,4-dihydroquinolin-2(1H)-one], in assay [1], the activity at 10 µM was 66% and the inhibition at 10 µM worked out at 35%. In the assay on U87-MG human glioma cell (10 µM, two days, MTT), the activity at 10 µM was found to be 73% and the inhibition at 10 µM worked out at 27%.
